Assay results published in US6207683A, “Benzocycloheptathiophene compounds” (Bridge Pharma, Inc., priority 1999, dated 2001).
Counter-ions that a name gives are not always drawn. Like-named read-outs stand apart in the source and are kept apart here.

How the values were obtained:
[1] = target: T1, histamine H1 -receptors (membranes from bovine cerebellum) (Bos taurus, UniProt P30546); test: [^3 H]pyrilamine binding assay, histamine H1-receptors
T1 construct: membranes from bovine cerebellum; from tissue; host or cells: bovine cerebellum membranes
Method: 1. Binding to histaminergic receptors
The affinities of the test compounds for histamine H1 -receptors were assessed using the [^3 H]pyrilamine binding assay, modified after Chang et al. Heterogeneity of Histamine H1 -Receptors. J. Neurochem. 1979, 32: 1653-1663 Briefly, membranes from bovine cerebellum were incubated with [^3 H]pyrilamine and the test compound at increasing concentrations. The specific binding of the radioactive ligand to the receptor was defined as the difference between total binding and nonspecific binding, determined in the presence of an excess of unlabelled ligand. IC50 values (concentration required to inhibit 50% of specific binding of [^3 H]pyrilamine) were determined by non linear regression analysis of the competition curves.

[2] = target: T2, muscarinic M1 -receptors (bovine striatal membranes) (Bos taurus, UniProt F1N5C5); test: biochemical; format: binding
T2 sequence (F1N5C5 1-460): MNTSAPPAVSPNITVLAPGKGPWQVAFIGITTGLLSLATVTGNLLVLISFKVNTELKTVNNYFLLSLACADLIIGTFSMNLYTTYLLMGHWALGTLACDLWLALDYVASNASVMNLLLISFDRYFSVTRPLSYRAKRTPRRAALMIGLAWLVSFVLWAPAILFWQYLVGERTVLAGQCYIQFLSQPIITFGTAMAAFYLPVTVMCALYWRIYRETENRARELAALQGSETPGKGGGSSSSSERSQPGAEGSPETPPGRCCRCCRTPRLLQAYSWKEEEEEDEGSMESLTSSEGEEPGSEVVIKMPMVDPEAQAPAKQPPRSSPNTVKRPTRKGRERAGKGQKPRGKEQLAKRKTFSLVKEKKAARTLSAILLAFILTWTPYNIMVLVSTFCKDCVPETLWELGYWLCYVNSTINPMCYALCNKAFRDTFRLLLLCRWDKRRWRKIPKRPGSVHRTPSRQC
Method: 2. Binding to muscarinic receptors
The affinities of the test compounds for muscarinic M1 -receptors were assessed using the [^3 H]pirenzepine binding assay, modified after Luthin et al. [^3 H]Pirenzepine and [^3 H]QNB binding to brain muscarinic cholinergic receptors. Molec. Pharmac. 1984, 26: 164-169. Briefly, the experiments were carried out on bovine striatal membranes expressing muscarinic M1 -receptors. After incubation with the test article and the proper radioligand and washing, bound radioactivity is determined with a […], using a commercial scintillation cocktail. The specific radioligand binding to each receptor is defined as the difference between total binding and nonspecific binding determined in the presence of an excess of unlabelled ligand. IC50 values (concentrations required to inhibit 50% of specific binding) were determined by non linear regression analysis of the competition curves.

[3] = system: physostigmine-induced lethality; test: Physostigmine-induced lethality test (sedative effects); format: in vivo; conditions: survivors of 10 mice 30 min after physostigmine 1.9 mg/kg s.c.; oral treatment 60 min before, mg/kg: Ketotifen 107, Nor-ketotifen 83, Example 2 94, Example 5 108, Astemizole 115
Method: 3. Studies on sedative effects
The physostigmine-induced lethality test used in these tests is a modification of the sedation test technique reported by COLLIER et al., in Br. J. Pharmac., 1968, 32: 295-310. In short, physostigmine (1.9 mg/kg s.c.) produces 100% lethality when given to grouped mice with 10 animals in each plastic cage (approx. 11×26×13 cm). Mice administered a sedating antihistamine prior to physostigmine are protected and survive. In the present study, test compounds were administered orally 60 minutes prior to physostigmine. The number of survivors were counted 30 minutes after physostigmine administration. The doses in the CNS test were half of the molecular weights of the test compounds, expressed in mg/kg body weight.

[4] = Sedative activity (general statement); format: in vivo; conditions: statement in words
[5] = inhibition of 50% of specific binding of [^3 H]pyrilamine, bovine cerebellum membranes, read-out: IC50
[6] = inhibition of 50% of specific [^3 H]pirenzepine binding, bovine striatal membranes, read-out: IC50

T1 sequence (P30546 whole entry): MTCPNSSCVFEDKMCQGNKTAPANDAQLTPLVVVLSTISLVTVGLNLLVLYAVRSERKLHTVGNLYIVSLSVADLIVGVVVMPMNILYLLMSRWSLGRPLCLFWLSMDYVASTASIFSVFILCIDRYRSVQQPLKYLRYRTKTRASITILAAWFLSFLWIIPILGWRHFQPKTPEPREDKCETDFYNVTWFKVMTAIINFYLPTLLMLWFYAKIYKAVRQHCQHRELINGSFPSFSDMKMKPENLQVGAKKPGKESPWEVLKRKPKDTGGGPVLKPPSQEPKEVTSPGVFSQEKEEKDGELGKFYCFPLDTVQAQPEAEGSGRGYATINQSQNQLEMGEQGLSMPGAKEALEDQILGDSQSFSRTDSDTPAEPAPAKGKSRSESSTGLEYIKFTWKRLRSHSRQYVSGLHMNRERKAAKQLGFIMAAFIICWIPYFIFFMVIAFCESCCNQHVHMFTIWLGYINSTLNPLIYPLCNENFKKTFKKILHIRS

SMILES	IC50 [1, 5]	Survived [3]	IC50 [2, 6]	other results
OC1Cc2ccccc2C(=C2CCNCC2)c2ccsc21 (stereo not drawn) [10-OH-NORKETOTIFEN, 10-OH-norketotifen]	113 nM			
CN1[C@@H]2CC[C@H]1C[C@@H](OC(=O)C(CO)c1ccccc1)C2 (stereo partly drawn) [ATROPINE Sulfate]				IC50 [2]: 0.574 nM
COc1ccc(CCN2CCC(Nc3nc4ccccc4n3Cc3ccc(F)cc3)CC2)cc1 [Astemizole]		1/10		
O=C1Cc2ccccc2C(=C2CCN(CCO)CC2)c2ccsc21 [Example 2]	5.85 nM	3/10	235 nM	
O=C(O)COCCN1CCC(=C2c3ccccc3CC(=O)c3sccc32)CC1 [Example 5]	69.5 nM	0/10	880 nM	
CN1CCC(=C2c3ccccc3CC(=O)c3sccc32)CC1 [Ketotifen, ketotifen]		9/10		sedative activity / sedative side effects [4]: profound sedative side effects
O=C1Cc2ccccc2C(=C2CCNCC2)c2ccsc21 [Norketotifen, 4-(4-piperidylidene)-9,10-dihydro-4 H-benzo[4,5]cyclo-hepta[1,2-] thiophene-10-one]		3/10	261 nM	IC50 [1]: 43.6 nM
Cc1ccc(/C(=C\CN2CCCC2)c2ccccn2)cc1 [TRIPROLIDINE HCl]	14.1 nM			
